Reference: patent publication US7923425B2, “Low-foaming, acidic low-temperature cleaner and process for cleaning surfaces” (Henkel AG & Co. KGaA, priority 2006, dated 2011)
“And” between values parts separate entries of the source, which are not always exact repeats. Equal values may be shown once.

Experiments:
[1] = Cleaning test on soiled aluminum panels, mineral oil soil; details: 0.05% alone in water, no matrix, 120° F., 90 seconds
Experimental: (§1) A series of commercially available cleaners as well as certain surfactants and related compounds in water, alone, without a builder matrix were tested for cleaning performance. The cleaning effectiveness of each cleaner composition was tested follows: • 1. Soiled aluminum panels, 1″×4″, were used as the test specimens. […] Mineral oil and corn oil, each modified by the addition of 10% graphite, were used as the soils for each screening. Soil patches on the aluminum were deposited immediately before testing.
(§2) The test specimens were cleaned by low-impingement, continuously circulated aqueous working baths to determine chemical cleaning strength. The test also screened for foaminess. The continuous circulation promoted foam formation. Cleaning effectiveness was evaluated gravimetrically and the percentage of oily contaminant removed by the formulation was calculated by comparing soil weights before and after cleaning. This technique is a common procedure in analytic chemistry and will be familiar to those of skill in the art. The results of these experiments are summarized in Tables 1 and 3 as percent reduction of soil.

[2] = Cleaning test on soiled aluminum panels, corn oil soil; details: 0.05% alone in water, no matrix, 120° F., 90 seconds
Experimental: as §1, §2

| Molecule | % reduction of soil, Min Oil, single panel [1] | % reduction of soil, Corn Oil, single panel [2] |
| --- | --- | --- |
| OCCOCCOCc1ccccc1 [Surfactant #7, benzyl alcohol ethoxylate, C6H5CH2—O—(CH2—CH2—O)n—H, n=2] | 98.9% and 100.0% (2×) | 92.2% and 92.0% and 91.6% |
| tri(propylene glycol) propyl ether | 93.9% and 100.0% (2×) | 90.0% and 88.9% and 95.0% |
